US9321776B2, “Isochromene derivatives as phoshoinositide 3-kinases inhibitors” (CHIESI FARMACEUTICI S.p.A., priority 2013, dated 2016)
Where a name gives a salt, the structure may show the parent alone.

Tests used:
[1] = target: T1, PI3Kδ (Homo sapiens, UniProt O00329); assay: PI3K enzyme inhibitory activity in the cell free assay (ADP-Glo Kinase Assay); assay type: biochemical; details: human recombinant PI3Kδ, ATP 80 μM; read-out: PI3K delta inhibition
T1 construct: purchased Millipore Ltd (Billerica, Mass.)
T1 sequence (O00329 1-1044): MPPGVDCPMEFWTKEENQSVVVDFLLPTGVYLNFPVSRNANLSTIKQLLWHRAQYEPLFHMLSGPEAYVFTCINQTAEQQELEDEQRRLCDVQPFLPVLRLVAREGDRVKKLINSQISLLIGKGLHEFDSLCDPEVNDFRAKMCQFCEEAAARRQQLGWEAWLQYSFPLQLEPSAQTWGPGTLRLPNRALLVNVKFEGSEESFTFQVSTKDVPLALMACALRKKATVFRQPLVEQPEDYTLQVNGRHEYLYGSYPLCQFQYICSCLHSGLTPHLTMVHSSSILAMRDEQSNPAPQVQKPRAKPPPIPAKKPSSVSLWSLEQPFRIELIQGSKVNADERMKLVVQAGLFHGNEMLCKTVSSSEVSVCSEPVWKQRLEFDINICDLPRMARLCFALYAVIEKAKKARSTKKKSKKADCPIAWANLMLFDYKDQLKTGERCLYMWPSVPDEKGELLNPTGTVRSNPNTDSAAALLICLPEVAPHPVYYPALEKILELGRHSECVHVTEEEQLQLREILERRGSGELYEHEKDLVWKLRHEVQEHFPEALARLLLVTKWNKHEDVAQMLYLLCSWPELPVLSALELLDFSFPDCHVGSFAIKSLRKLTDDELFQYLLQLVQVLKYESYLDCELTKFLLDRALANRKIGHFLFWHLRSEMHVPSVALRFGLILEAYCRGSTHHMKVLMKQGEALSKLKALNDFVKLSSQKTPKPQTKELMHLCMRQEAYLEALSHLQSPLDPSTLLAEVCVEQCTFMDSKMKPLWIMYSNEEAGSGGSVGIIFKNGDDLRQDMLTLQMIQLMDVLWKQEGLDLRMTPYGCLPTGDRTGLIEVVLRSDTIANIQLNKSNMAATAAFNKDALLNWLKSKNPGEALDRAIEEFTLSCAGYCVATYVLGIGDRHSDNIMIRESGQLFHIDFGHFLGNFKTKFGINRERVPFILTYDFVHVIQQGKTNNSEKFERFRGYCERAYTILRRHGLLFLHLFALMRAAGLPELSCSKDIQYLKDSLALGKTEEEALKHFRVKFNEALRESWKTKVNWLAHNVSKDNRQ

[2] = target: T2, PI3Kγ (Homo sapiens, UniProt P48736); assay: as above; assay type: biochemical; details: human recombinant PI3Kγ, ATP 30 μM; read-out: PI3K gamma inhibition
T2 construct: purchased Millipore Ltd (Billerica, Mass.)
T2 sequence (P48736 whole entry): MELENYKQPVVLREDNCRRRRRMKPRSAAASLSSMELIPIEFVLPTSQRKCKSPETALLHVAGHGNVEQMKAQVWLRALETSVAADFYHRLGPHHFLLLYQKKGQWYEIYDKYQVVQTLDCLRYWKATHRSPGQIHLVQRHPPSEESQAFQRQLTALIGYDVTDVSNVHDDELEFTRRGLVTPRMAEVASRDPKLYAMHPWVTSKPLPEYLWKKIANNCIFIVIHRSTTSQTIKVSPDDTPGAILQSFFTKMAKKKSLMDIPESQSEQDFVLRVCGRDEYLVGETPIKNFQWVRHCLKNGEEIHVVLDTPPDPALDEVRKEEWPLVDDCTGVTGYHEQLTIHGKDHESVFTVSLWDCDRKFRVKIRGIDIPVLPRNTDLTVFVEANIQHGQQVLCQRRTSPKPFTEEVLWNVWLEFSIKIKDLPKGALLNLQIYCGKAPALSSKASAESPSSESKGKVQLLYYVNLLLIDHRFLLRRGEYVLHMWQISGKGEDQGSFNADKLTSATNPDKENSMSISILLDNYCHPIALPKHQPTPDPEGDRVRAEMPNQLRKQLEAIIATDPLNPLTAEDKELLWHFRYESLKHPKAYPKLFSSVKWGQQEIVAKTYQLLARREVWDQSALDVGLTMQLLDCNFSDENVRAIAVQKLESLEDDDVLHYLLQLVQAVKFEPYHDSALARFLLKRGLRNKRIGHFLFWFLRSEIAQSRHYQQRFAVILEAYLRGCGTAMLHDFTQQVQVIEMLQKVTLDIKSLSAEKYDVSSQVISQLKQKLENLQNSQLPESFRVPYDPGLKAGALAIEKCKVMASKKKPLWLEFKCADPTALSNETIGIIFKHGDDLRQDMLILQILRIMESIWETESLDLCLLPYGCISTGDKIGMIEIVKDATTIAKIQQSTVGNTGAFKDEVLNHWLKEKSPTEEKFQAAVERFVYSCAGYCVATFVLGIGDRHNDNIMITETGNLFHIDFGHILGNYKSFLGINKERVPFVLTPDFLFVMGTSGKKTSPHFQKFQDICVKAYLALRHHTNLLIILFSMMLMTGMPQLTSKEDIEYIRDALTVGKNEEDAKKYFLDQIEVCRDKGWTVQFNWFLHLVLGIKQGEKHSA

Row | SMILES | IC50 [1] | IC50 [2]
1 | CC(Nc1ncnc2[nH]cnc12)c1oc(=O)c2ccccc2c1-c1ccc(OCCN2CCOCC2)cc1 (stereo not drawn) [Example 26, 3-(1-(9H-Purin-6-ylamino)ethyl)-4-(4-(2-morpholinoethoxy)phenyl)-1H-isochromen-1-one formate] | 10 to 1000 nM | 10 to 1000 nM
2 | CC(c1oc(=O)c2ccccc2c1-c1ccc(CN2CCN(CCO)CC2)s1)n1nc(-c2cc(O)cc(F)c2)c2c(N)ncnc21 (single isomer, unassigned) [Example 76a, 3-(1-(4-amino-3-(3-fluoro-5-hydroxyphenyl)-1H-pyrazolo[3,4-d]pyrimidin-1-yl)ethyl)-4-(5-((4-(2-hydroxyethyl)piperazin-1-yl)methyl)thiophen-2-yl)-1H-isochromen-1-one hydrochloride] | 10 to 1000 nM | 
3 | Cc1cc(-c2c(C(C)n3ncc4c(N)ncnc43)oc(=O)c3ccccc23)ccn1 (stereo not drawn) [Example 19, 3-(1-(4-Amino-1H-pyrazolo[3,4-d]pyrimidin-1-yl)ethyl)-4-(2-methylpyridin-4-yl)-1H-isochromen-1-one] | 10 to 1000 nM | 
4 | CC(Nc1ncnc2sccc12)c1oc(=O)c2ccccc2c1-c1ccccc1 (stereo not drawn) [Example 108, 4-phenyl-3-(1-(thieno[2,3-d]pyrimidin-4-ylamino)ethyl)-1H-isochromen-1-one] | 10 to 1000 nM | 
5 | CC(c1oc(=O)c2ccccc2c1-c1cccc(S(=O)(=O)N2CCOCC2)c1)n1cnc2c(N)ncnc21 (stereo not drawn) [Example 9, 3-(1-(6-Amino-9H-purin-9-yl)ethyl)-4-(3-(morpholinosulfonyl)phenyl)-1H-isochromen-1-one] | 10 to 1000 nM | 10 to 1000 nM
6 | CC(c1oc(=O)c2ccccc2c1-c1cccc(CN(C)C)c1)n1nc(-c2cc(O)cc(F)c2)c2c(N)ncnc21 (single isomer, unassigned) [Example 67b, 3-(1-(4-amino-3-(3-fluoro-5-hydroxyphenyl)-1H-pyrazolo[3,4-d]pyrimidin-1-yl)ethyl)-4-(3-((dimethylamino)methyl)phenyl)-1H-isochromen-1-one] | 10 to 1000 nM | 
7 | CC(c1oc(=O)c2ccccc2c1-c1ccc(CN2CCOCC2)cc1)n1nc(-c2cc(O)cc(F)c2)c2c(N)ncnc21 (stereo not drawn) [Example 48, 3-(1-(4-amino-3-(3-fluoro-5-hydroxyphenyl)-1H-pyrazolo[3,4-d]pyrimidin-1-yl)ethyl)-4-(4-(morpholinomethyl)phenyl)-1H-isochromen-1-one hydrochloride] | < 10 nM | 10 to 1000 nM
8 | CC(c1oc(=O)c2ccccc2c1-c1ccccc1)n1nc(-c2ccc3[nH]nc(N)c3c2)c2c(N)ncnc21 (stereo not drawn) [Example 113, 3-(1-(4-amino-3-(3-amino-1H-indazol-5-yl)-1H-pyrazolo[3,4-d]pyrimidin-1-yl)ethyl)-4-phenyl-1H-isochromen-1-one] | 10 to 1000 nM | 
9 | COc1ncc(-c2nn(C(C)c3oc(=O)c4ccccc4c3-c3ccccc3)c3ncnc(N)c23)cn1 (stereo not drawn) [Example 55, 3-(1-(4-amino-3-(2-methoxypyrimidin-5-yl)-1H-pyrazolo[3,4-d]pyrimidin-1-yl)ethyl)-4-phenyl-1H-isochromen-1-one] | < 10 nM | 10 to 1000 nM
10 | CC(c1oc(=O)c2ccccc2c1-c1ccc(CCCN(C)C)cc1)n1nc(-c2cc(O)cc(F)c2)c2c(N)ncnc21 (single isomer, unassigned) [Example 138a, 3-(1-(4-amino-3-(3-fluoro-5-hydroxyphenyl)-1H-pyrazolo[3,4-d]pyrimidin-1-yl)ethyl)-4-(4-(3-(dimethylamino)propyl)phenyl)-1H-isochromen-1-one single enantiomers] | > 1000 nM | 
11 | CC(c1oc(=O)c2ccccc2c1-c1ccccc1)n1nc(-c2cnc(O)c(F)c2)c2c(N)ncnc21 (stereo not drawn) [Example 98, 3-(1-(4-amino-3-(5-fluoro-6-hydroxypyridin-3-yl)-1H-pyrazolo[3,4-d]pyrimidin-1-yl)ethyl)-4-phenyl-1H-isochromen-1-one] | 10 to 1000 nM | 
12 | CC(Nc1ncnn2cccc12)c1oc(=O)c2ccccc2c1-c1ccccc1 (stereo not drawn) [Example 83, 4-phenyl-3-(1-(pyrrolo[2,1-f][1,2,4]triazin-4-ylamino)ethyl)-1H-isochromen-1-one] | 10 to 1000 nM | > 1000 nM
13 | CC(c1oc(=O)c2ccccc2c1-c1ccccc1)n1nc(-c2cncc(F)c2)c2c(N)ncnc21 (stereo not drawn) [Example 94, 3-(1-(4-amino-3-(5-fluoropyridin-3-yl)-1H-pyrazolo[3,4-d]pyrimidin-1-yl)ethyl)-4-phenyl-1H-isochromen-1-one] | 10 to 1000 nM | 10 to 1000 nM
14 | CC(Nc1ncnc2ccsc12)c1oc(=O)c2ccccc2c1-c1ccc(CN2CCOCC2)s1 (stereo not drawn) [Example 81, 4-(5-(morpholinomethyl)thiophen-2-yl)-3-(1-(thieno[3,2-d]pyrimidin-4-ylamino)ethyl)-1H-isochromen-1-one hydrochloride] | 10 to 1000 nM | > 1000 nM
15 | COc1cncc(-c2nn(C(C)c3oc(=O)c4ccccc4c3-c3ccccc3)c3ncnc(N)c23)c1 (stereo not drawn) [Example 57, 3-(1-(4-amino-3-(5-methoxypyridin-3-yl)-1H-pyrazolo[3,4-d]pyrimidin-1-yl)ethyl)-4-phenyl-1H-isochromen-1-one] | 10 to 1000 nM | 10 to 1000 nM
16 | CC(c1oc(=O)c2ccccc2c1-c1ccccc1)n1nc(-c2cncc(S(C)(=O)=O)c2)c2c(N)ncnc21 (stereo not drawn) [Example 96, 3-(1-(4-amino-3-(5-(methylsulfonyl)pyridin-3-yl)-1H-pyrazolo[3,4-d]pyrimidin-1-yl)ethyl)-4-phenyl-1H-isochromen-1-one] | 10 to 1000 nM | 
17 | CC(c1oc(=O)c2ccccc2c1-c1ccc(CN2CCCCC2)s1)n1nc(-c2cc(O)cc(F)c2)c2c(N)ncnc21 (single isomer, unassigned) [Example 68a, 3-(1-(4-amino-3-(3-fluoro-5-hydroxyphenyl)-1H-pyrazolo[3,4-d]pyrimidin-1-yl)ethyl)-4-(5-(piperidin-1-ylmethyl)thiophen-2-yl)-1H-isochromen-1-one hydrochloride single enantiomers] | 10 to 1000 nM | 
18 | CC(c1oc(=O)c2ccccc2c1-c1ccccc1)n1nc(-c2cnc(O)nc2)c2c(N)ncnc21 (stereo not drawn) [Example 56, 3-(1-(4-amino-3-(2-hydroxypyrimidin-5-yl)-1H-pyrazolo[3,4-d]pyrimidin-1-yl)ethyl)-4-phenyl-1H-isochromen-1-one] | 10 to 1000 nM | 
19 | CC(c1oc(=O)c2ccccc2c1-c1ccccc1)n1nc(-c2cncc(C(F)(F)F)c2)c2c(N)ncnc21 (stereo not drawn) [Example 100, 3-(1-(4-amino-3-(5-(trifluoromethyl)pyridin-3-yl)-1H-pyrazolo[3,4-d]pyrimidin-1-yl)ethyl)-4-phenyl-1H-isochromen-1-one] | 10 to 1000 nM | 
20 | CC(c1oc(=O)c2ccccc2c1-c1ccc(CN2CCNCC2)cc1)n1ncc2c(N)ncnc21 (stereo not drawn) [Example 127, 3-(1-(4-amino-1H-pyrazolo[3,4-d]pyrimidin-1-yl)ethyl)-4-(4-(piperazin-1-ylmethyl)phenyl)-1H-isochromen-1-one hydrochloride] | > 1000 nM | 
21 | CC(c1oc(=O)c2ccccc2c1-c1ccccc1)n1nc(-c2cc(O)cc(S(F)(F)(F)(F)F)c2)c2c(N)ncnc21 (stereo not drawn) [Example 101, 3-(1-(4-amino-3-(5-hydroxy-3-sulfurpentafluoride)-1H-pyrazolo[3,4-d]pyrimidin-1-yl)ethyl)-4-phenyl-1H-isochromen-1-one] | 10 to 1000 nM | 
22 | CC(c1oc(=O)c2ccccc2c1Cc1ccccc1)n1ncc2c(N)ncnc21 (stereo not drawn) [Example 20, 3-(1-(4-Amino-1H-pyrazolo[3,4-d]pyrimidin-1-yl)ethyl)-4-benzyl-1H-isochromen-1-one] | 10 to 1000 nM | 
23 | CC(c1oc(=O)c2ccccc2c1-c1ccccc1)n1nc(-c2cncc(O)n2)c2c(N)ncnc21 (stereo not drawn) [Example 90, 3-(1-(4-amino-3-(6-hydroxypyrazin-2-yl)-1H-pyrazolo[3,4-d]pyrimidin-1-yl)ethyl)-4-phenyl-1H-isochromen-1-one] | 10 to 1000 nM | 
24 | CC(c1oc(=O)c2ccccc2c1-c1ccccc1)n1nc(-c2cncc(C#N)c2)c2c(N)ncnc21 (stereo not drawn) [Example 102, 5-(4-amino-1-(1-(1-oxo-4-phenyl-1H-isochromen-3-yl)ethyl)-1H-pyrazolo[3,4-d]pyrimidin-3-yl)nicotinonitrile] |  | 10 to 1000 nM
25 | CC(c1oc(=O)c2ccccc2c1-c1ccccc1)n1nc(-c2cc(F)cc(Cl)c2)c2c(N)ncnc21 (stereo not drawn) [Example 95, 3-(1-(4-amino-3-(3-chloro-5-fluorophenyl)-1H-pyrazolo[3,4-d]pyrimidin-1-yl)ethyl)-4-phenyl-1H-isochromen-1-one] | > 1000 nM | 
